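Protocol summary: plate cells (96-well), add compound at 5 concentrations, incubate 48 h, interpolate endpoints linearly. GI50 is the concentration that inhibits growth by half.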 Calls of active or inactive are those of the source. Cut-off read from the data, not from the text of the source: active = GI50 up to about 1.1 µM and inactive = higher.
Assays:
Assay in all cases: inhibition of tumour cell growth, NCI panel, 48 h
NCI-H522 = test system: NCI-H522
NCI-H460 = test system: NCI-H460
HCT-15 = test system: HCT-15
Hs-578T = test system: Hs-578T
CAKI-1 = test system: CAKI-1
NCI-H226 = test system: NCI-H226
KM12 = test system: KM12
OVCAR-5 = test system: OVCAR-5
IGROV-1 = test system: IGROV-1
HCT-116 = test system: HCT-116
DU-145 = test system: DU-145
OVCAR-3 = test system: OVCAR-3
NCI-H23 = test system: NCI-H23
SN12C = test system: SN12C
BT-549 = test system: BT-549
ACHN = test system: ACHN
MCF7 = test system: MCF7
HT-29 = test system: HT-29
TK-10 = test system: TK-10
U-251 = test system: U-251
OVCAR-4 = test system: OVCAR-4
OVCAR-8 = test system: OVCAR-8
MDA-MB-435 = test system: MDA-MB-435
T47D = test system: T47D
K562 = test system: K562
PC-3 = test system: PC-3
EKVX = test system: EKVX
HCC 2998 = test system: HCC 2998
UACC-257 = test system: UACC-257
HL-60 = test system: HL-60
COLO 205 = test system: COLO 205
LOX IMVI = test system: LOX IMVI
SF-268 = test system: SF-268
MDA-MB-231 = test system: MDA-MB-231
SNB-19 = test system: SNB-19
SK-MEL-28 = test system: SK-MEL-28
SF-295 = test system: SF-295
A498 = test system: A498
Malme-3M = test system: Malme-3M
SR = test system: SR
HOP-62 = test system: HOP-62
SK-MEL-2 = test system: SK-MEL-2
MDA-N = test system: MDA-N
SNB-75 = test system: SNB-75
UO-31 = test system: UO-31
SW-620 = test system: SW-620
NCI/ADR-RES = test system: NCI/ADR-RES
RPMI-8226 = test system: RPMI-8226
MOLT-4 = test system: MOLT-4
786-0 = test system: 786-0
UACC-62 = test system: UACC-62
SK-MEL-5 = test system: SK-MEL-5
RXF 393 = test system: RXF 393
CCRF-CEM = test system: CCRF-CEM
SF-539 = test system: SF-539
HOP-92 = test system: HOP-92
A549 = test system: A549
SK-OV-3 = test system: SK-OV-3
M14 = test system: M14

## O=C1/C(=C/c2ccc(Br)s2)NC(=S)N1CN1CCCCC1
NCI-H522
  GI50: 23.3 µM (inactive)
NCI-H460
  GI50: 36.1 µM (inactive)
HCT-15
  GI50: 27.9 µM
Hs-578T
  GI50: 51.4 µM (inactive)
CAKI-1
  GI50: 32.4 µM (inactive)
NCI-H226
  GI50: 32 µM (inactive)
KM12
  GI50: 35.6 µM (inactive)
OVCAR-5
  GI50: 76.6 µM (inactive)
IGROV-1
  GI50: 42.1 µM (inactive)
HCT-116
  GI50: 31 µM (inactive)
DU-145
  GI50: 38.1 µM (inactive)
OVCAR-3
  GI50: 22.4 µM (inactive)
NCI-H23
  GI50: 32.4 µM (inactive)
SN12C
  GI50: 34.8 µM (inactive)
BT-549
  GI50: 25.9 µM (inactive)
ACHN
  GI50: 46 µM (inactive)
MCF7
  GI50: 20.6 µM (inactive)
HT-29
  GI50: 33.2 µM (inactive)
TK-10
  GI50: 34.5 µM (inactive)
U-251
  GI50: 28.8 µM (inactive)
OVCAR-4
  GI50: 36.8 µM (inactive)
OVCAR-8
  GI50: 33.3 µM (inactive)
MDA-MB-435
  GI50: 30 µM (inactive)
T47D
  GI50: 30.5 µM (inactive)
K562
  GI50: 23.1 µM (inactive)
PC-3
  GI50: 28.2 µM (inactive)
EKVX
  GI50: 9.35 µM (inactive)
HCC 2998
  GI50: 31 µM (inactive)
UACC-257
  GI50: 33.3 µM (inactive)
HL-60
  GI50: 15.4 µM (inactive)
COLO 205
  GI50: 18.1 µM (inactive)
LOX IMVI
  GI50: 21.5 µM (inactive)
SF-268
  GI50: 39.4 µM (inactive)
MDA-MB-231
  GI50: 62.4 µM (inactive)
SNB-19
  GI50: 46.9 µM (inactive)
SK-MEL-28
  GI50: 41.1 µM (inactive)
SF-295
  GI50: 30.5 µM (inactive)
A498
  GI50: 22.9 µM (inactive)
Malme-3M
  GI50: 58.7 µM (inactive)
SR
  GI50: 15.8 µM (inactive)
HOP-62
  GI50: 75 µM (inactive)
SK-MEL-2
  GI50: 0.678 µM (active)
MDA-N
  GI50: 33.9 µM (inactive)
SNB-75
  GI50: 44.6 µM (inactive)
UO-31
  GI50: 24.5 µM (inactive)
SW-620
  GI50: 33 µM (inactive)
NCI/ADR-RES
  GI50: 28.8 µM (inactive)
RPMI-8226
  GI50: 17.6 µM (inactive)
MOLT-4
  GI50: 23.4 µM (inactive)
786-0
  GI50: 36.4 µM (inactive)
UACC-62
  GI50: 26.6 µM (inactive)
SK-MEL-5
  GI50: 0.317 µM (active)
RXF 393
  GI50: 21.1 µM (inactive)

## N#Cc1c(-c2ccccc2)[nH]c2ccc(Cl)cc2c1=O
NCI-H522
  GI50: 26.4 µM (inactive)
NCI-H460
  GI50: > 100 µM (inactive)
HCT-15
  GI50: > 100 µM
Hs-578T
  GI50: 34.8 µM (inactive)
CAKI-1
  GI50: 1.62 µM (inactive)
NCI-H226
  GI50: 38 µM (inactive)
KM12
  GI50: > 100 µM (inactive)
OVCAR-5
  GI50: > 100 µM (inactive)
IGROV-1
  GI50: 63.1 µM (inactive)
HCT-116
  GI50: 81.8 µM (inactive)
CCRF-CEM
  GI50: > 100 µM (inactive)
DU-145
  GI50: > 100 µM (inactive)
SF-539
  GI50: > 100 µM (inactive)
OVCAR-3
  GI50: > 100 µM (inactive)
NCI-H23
  GI50: 92.5 µM (inactive)
SN12C
  GI50: > 100 µM (inactive)
BT-549
  GI50: 22.5 µM (inactive)
HOP-92
  GI50: 22.9 µM (inactive)
ACHN
  GI50: > 100 µM (inactive)
A549
  GI50: 13 µM (inactive)
MCF7
  GI50: > 100 µM (inactive)
HT-29
  GI50: > 100 µM (inactive)
TK-10
  GI50: 29.7 µM (inactive)
U-251
  GI50: 28.2 µM (inactive)
OVCAR-4
  GI50: > 100 µM (inactive)
OVCAR-8
  GI50: 86.9 µM (inactive)
SK-OV-3
  GI50: 25.1 µM (inactive)
MDA-MB-435
  GI50: > 100 µM (inactive)
T47D
  GI50: > 100 µM (inactive)
K562
  GI50: > 100 µM (inactive)
PC-3
  GI50: > 100 µM (inactive)
EKVX
  GI50: > 100 µM (inactive)
HCC 2998
  GI50: > 100 µM (inactive)
UACC-257
  GI50: > 100 µM (inactive)
HL-60
  GI50: > 100 µM (inactive)
COLO 205
  GI50: > 100 µM (inactive)
LOX IMVI
  GI50: > 100 µM (inactive)
SF-268
  GI50: 36.1 µM (inactive)
MDA-MB-231
  GI50: 21.7 µM (inactive)
SNB-19
  GI50: 22.9 µM (inactive)
SK-MEL-28
  GI50: > 100 µM (inactive)
SF-295
  GI50: 22.4 µM (inactive)
Malme-3M
  GI50: > 100 µM (inactive)
M14
  GI50: > 100 µM (inactive)
SR
  GI50: > 100 µM (inactive)
HOP-62
  GI50: 25.8 µM (inactive)
SK-MEL-2
  GI50: 16.7 µM (inactive)
MDA-N
  GI50: > 100 µM (inactive)
SNB-75
  GI50: 44.7 µM (inactive)
UO-31
  GI50: 22.4 µM (inactive)
SW-620
  GI50: > 100 µM (inactive)
NCI/ADR-RES
  GI50: 92.9 µM (inactive)
RPMI-8226
  GI50: > 100 µM (inactive)
MOLT-4
  GI50: > 100 µM (inactive)
786-0
  GI50: 30.5 µM (inactive)
UACC-62
  GI50: 57.3 µM (inactive)
SK-MEL-5
  GI50: > 100 µM (inactive)
RXF 393
  GI50: 20.7 µM (inactive)

## O=C(N/N=C\c1ccc2ccccc2c1)Nc1ccc([N+](=O)[O-])cc1
NCI-H522
  GI50: 16.3 µM (inactive)
NCI-H460
  GI50: 24.4 µM (inactive)
HCT-15
  GI50: 16.8 µM
Hs-578T
  GI50: 32.9 µM (inactive)
CAKI-1
  GI50: 45 µM (inactive)
NCI-H226
  GI50: 29.4 µM (inactive)
KM12
  GI50: 33.4 µM (inactive)
OVCAR-5
  GI50: 22.5 µM (inactive)
IGROV-1
  GI50: 29.7 µM (inactive)
HCT-116
  GI50: 21.1 µM (inactive)
CCRF-CEM
  GI50: 28.6 µM (inactive)
DU-145
  GI50: 23.7 µM (inactive)
SF-539
  GI50: 19.5 µM (inactive)
OVCAR-3
  GI50: 20.2 µM (inactive)
NCI-H23
  GI50: 22.2 µM (inactive)
SN12C
  GI50: 24.2 µM (inactive)
BT-549
  GI50: 24.3 µM (inactive)
HOP-92
  GI50: 17.5 µM (inactive)
ACHN
  GI50: 24.6 µM (inactive)
A549
  GI50: 26.4 µM (inactive)
MCF7
  GI50: 22.3 µM (inactive)
HT-29
  GI50: 21.3 µM (inactive)
TK-10
  GI50: 18.9 µM (inactive)
U-251
  GI50: 29.3 µM (inactive)
OVCAR-4
  GI50: 22.1 µM (inactive)
OVCAR-8
  GI50: 23 µM (inactive)
SK-OV-3
  GI50: 18.9 µM (inactive)
MDA-MB-435
  GI50: 31.1 µM (inactive)
T47D
  GI50: 17.9 µM (inactive)
K562
  GI50: 9.84 µM (inactive)
PC-3
  GI50: 17.2 µM (inactive)
EKVX
  GI50: 47.3 µM (inactive)
HCC 2998
  GI50: 22.1 µM (inactive)
UACC-257
  GI50: 29 µM (inactive)
HL-60
  GI50: > 57.9 µM (inactive)
COLO 205
  GI50: 21.6 µM (inactive)
LOX IMVI
  GI50: 30.5 µM (inactive)
SF-268
  GI50: 27 µM (inactive)
MDA-MB-231
  GI50: 32.2 µM (inactive)
SNB-19
  GI50: 24.3 µM (inactive)
SK-MEL-28
  GI50: 26.2 µM (inactive)
SF-295
  GI50: 22.5 µM (inactive)
Malme-3M
  GI50: 27.7 µM (inactive)
M14
  GI50: 32.2 µM (inactive)
SR
  GI50: 43 µM (inactive)
HOP-62
  GI50: 27 µM (inactive)
SK-MEL-2
  GI50: 24 µM (inactive)
MDA-N
  GI50: 23.5 µM (inactive)
SNB-75
  GI50: 42.4 µM (inactive)
UO-31
  GI50: 23.2 µM (inactive)
SW-620
  GI50: 32.7 µM (inactive)
NCI/ADR-RES
  GI50: 20.9 µM (inactive)
RPMI-8226
  GI50: 15.1 µM (inactive)
MOLT-4
  GI50: 20 µM (inactive)
786-0
  GI50: 24 µM (inactive)
UACC-62
  GI50: 24.7 µM (inactive)
SK-MEL-5
  GI50: 22.7 µM (inactive)
RXF 393
  GI50: 26.4 µM (inactive)
